According to ChEMBL document CHEMBL5325413, “Optimization of BAX trigger site activator BTSA1 with improved antitumor potency and in vitro ADMET properties” (Eur J Med Chem, 2023):
Calls of active or inactive are those of the source. No cut-off for these calls is given here.

How the values were obtained:
A549 [1] = test: Antiproliferative activity against human A549 cells assessed as cell growth inhibition incubated for 72 hrs by MTT assay; format: functional
HCT-116 = test: Antiproliferative activity against human HCT-116 cells assessed as cell growth inhibition incubated for 72 hrs by MTT assay; format: functional
PC-3 = test: Antiproliferative activity against human PC-3 cells assessed as cell growth inhibition incubated for 72 hrs by MTT assay; format: functional
[2] = human, microsomes, 1 h, 100 µM
[3] = human, 1 h, 100 µM
[4] = mouse, 1 h, 100 µM
A549 [5] = test: Induction of apoptosis in human A549 cells assessed as live cells at 10 uM incubated for 48 hrs by Annexin V-FITC/PI staining based flow cytometry analysis (reference value: 96.4%); format: functional
A549 [6] = test: Induction of apoptosis in human A549 cells assessed as early apoptotic cells at 10 uM incubated for 48 hrs by Annexin V-FITC/PI staining based flow cytometry analysis (reference value: 0.708%); format: functional
A549 [7] = test: Induction of apoptosis in human A549 cells assessed as late apoptotic cells at 10 uM incubated for 48 hrs by Annexin V-FITC/PI staining based flow cytometry analysis (reference value: 2.15%); format: functional
A549 [8] = test: Induction of apoptosis in human A549 cells assessed as dead cells at 10 uM incubated for 48 hrs by Annexin V-FITC/PI staining based flow cytometry analysis (reference value: 0.739%); format: functional
A549 [9] = test: Induction of apoptosis in human A549 cells assessed as total apoptotic cells at 10 uM incubated for 48 hrs by Annexin V-FITC/PI staining based flow cytometry analysis (reference value: 2.86%); format: functional
[10] = Stability in rat plasma assessed as compound remaining measured immediately; format: ADME, cell-free; conditions: read-out: Stability
[11] = Stability in rat plasma assessed as compound remaining measured after 10 mins; format: ADME, cell-free; conditions: read-out: Stability
[12] = Stability in rat plasma assessed as compound remaining measured after 30 mins; format: ADME, cell-free; conditions: read-out: Stability
[13] = Stability in rat plasma assessed as compound remaining measured after 60 mins; format: ADME, cell-free; conditions: read-out: Stability
[14] = Stability in rat plasma assessed as compound remaining measured after 120 mins; format: ADME, cell-free; conditions: read-out: Stability
[15] = Stability in rat plasma assessed as half life; format: ADME, cell-free
A549 [16] = test: Induction of apoptosis in human A549 cells assessed as upregulation of BAX translocation at 20 uM incubated for 24 hrs by Western blot analysis; format: functional, cell-based
[17] = mouse, microsomes, 1 h, 100 µM
in vitro [18] = conditions: human, microsomes
in vitro [19] = conditions: mouse, microsomes

Row | Compound | GI50 (A549 [1]) [µM] | GI50 (HCT-116) [µM] | GI50 (PC-3) [µM] | also measured
1 | O=C(c1ccc(N2N=C(c3ccccc3)/C(=N\Nc3ccccc3)C2=O)cc1)N1CCC(N2CCCCC2)CC1 | 14.5 | 8.75 | 12.8 | –
2 | O=C(c1cscn1)N1CCC(C2=NN(c3nc(-c4ccccc4)cs3)C(=O)/C2=N\Nc2nccs2)CC1 | > 50 | > 50 | > 50 | –
3 | CN(C)C1CCN(C(=O)c2ccc(N3N=C(c4ccccc4)C(=C4CCN(C(=O)c5ccc(O)cc5)CC4)C3=O)cc2)CC1 | 33.6 | 34.7 | > 50 | –
4 | CN(C)C1CCN(C(=O)c2ccc(N3N=C(c4ccccc4)/C(=C/Nc4ccccc4)C3=O)cc2)CC1 | > 20 | 14.8 | > 20 | –
5 | C[C@]12CC[C@H]3[C@@H](CCC4=CC(=O)CC[C@@]43C)[C@@H]1CC[C@@H]2O [TESTOSTERONE] | – | – | – | CLint [2]: 106 µL/min/mg; CLH [3]: 95.5 mL/min/kg; CLH [4]: 1.4374 mL/min/kg
6 | CN(C)C1CCN(C(=O)c2ccc(N3N=C(c4ccccc4)CC3=O)cc2)CC1 | > 50 | > 50 | > 50 | –
7 | N[C@@H]1CCCN(C(=O)c2ccc(N3N=C(c4ccccc4)/C(=N/Nc4ccccc4)C3=O)cc2)C1 | 8.38 | 2.96 | 5.39 | Activity (A549 [5]): 6.22%; Activity (A549 [6]): 8.59%; Activity (A549 [7]): 3.21%; Activity (A549 [8]): 0.814%; Activity (A549 [9]): 11.8%
8 | CN(C)C1CCN(C(=O)c2ccc(N3N=C(c4ccccc4)/C(=N/Nc4cccnc4)C3=O)cc2)CC1 | 4.22 | 3.88 | 5.17 | –
9 | CC(C)Oc1cc(F)ccc1N/N=C1\C(=O)N(c2ccc(C(=O)N3CCC(N(C)C)CC3)cc2)N=C1c1ccccc1 | 6.13 | 2.2 | 2.42 | –
10 | O=C1CCN(C(=O)c2ccc(N3N=C(c4ccccc4)/C(=N/Nc4ccccc4)C3=O)cc2)CC1 | > 50 | > 50 | > 50 | –
11 | CN(C)C1CCN(C(=O)c2ccc(N3N=C(c4ccccc4)/C(=N/Nc4ccc(OCc5ccccc5)cc4)C3=O)cc2)CC1 | 5.03 | > 20 | > 20 | –
12 | CC1CCN(C(=O)c2cccc(N3N=C(c4ccccc4)/C(=N/Nc4ccccc4)C3=O)c2)CC1 | 2.72 | 3.44 | 2.41 | –
13 | CCOC(=O)[C@H](CCc1ccccc1)N[C@@H](C)C(=O)N1CCC[C@H]1C(=O)O.O=C(O)/C=C\C(=O)O [ENALAPRIL MALEATE] | – | – | – | remaining at 0 min [10]: 100%; remaining at 10 min [11]: 58.9%; remaining at 0.5 h [12]: 19.2%; remaining at 1 h [13]: 2.7%; remaining at 2 h [14]: 0%; half-life [15]: 10 min
14 | CN(C)C1CCN(C(=O)c2cccc(N3N=C(c4ccccc4)/C(=N/Nc4ccccc4)C3=O)c2)CC1 | 2.68 | 5.23 | 10.7 | –
15 | CN(C)CCCNC(=O)c1ccc(N2N=C(c3ccccc3)/C(=N/Nc3ccccc3)C2=O)cc1 | 3.32 | 2.14 | 3.76 | –
16 | O=C(c1ccccc1)N1CCC(C2=NN(c3nc(-c4ccccc4)cs3)C(=O)/C2=N\Nc2nccs2)CC1 | 28.7 | > 50 | > 50 | –
17 | O=C(c1ccc(N2N=C(c3ccccc3)/C(=N/Nc3ccccc3)C2=O)cc1)N1CCC2(CC1)CNC2 | 4.69 | 4.12 | 5.6 | –
18 | O=C(NCc1ccncc1)c1ccc(N2N=C(c3ccccc3)/C(=N/Nc3ccccc3)C2=O)cc1 | 11.5 | 17.5 | 12.6 | –
19 | CN1CCC(NC(=O)c2ccc(N3N=C(c4ccccc4)/C(=N/Nc4ccccc4)C3=O)cc2)CC1 | 4.44 | 4.13 | 6.45 | –
20 | CN(C)C1CCN(C(=O)c2ccc(N3N=C(c4ccccc4)/C(=N/Nc4ccc(O)cc4)C3=O)cc2)CC1 | 2.19 | 2.67 | 3.04 | Activity (A549 [5]): 21.5%; Activity (A549 [6]): 60%; Activity (A549 [7]): 16.2%; Activity (A549 [8]): 2.33%; Activity (A549 [16]): Active; Activity (A549 [9]): 76.2%

Row | Compound | GI50 (A549 [1]) [µM] | GI50 (HCT-116) [µM] | GI50 (PC-3) [µM] | also measured
21 | CC(C)(C)OC(=O)N1CCC2(CC1)CN(C(=O)c1ccc(N3N=C(c4ccccc4)/C(=N\Nc4ccccc4)C3=O)cc1)C2 | 25.5 | 17.7 | 19.9 | –
22 | CN(C)C1CCN(C(=O)c2ccc(N3N=C(c4ccccc4)/C(=N/Nc4cc(C(F)(F)F)cc(C(F)(F)F)c4)C3=O)cc2)CC1 | 4.54 | 1.76 | 1.15 | Activity (A549 [5]): 54.3%; Activity (A549 [6]): 34.7%; Activity (A549 [7]): 10.1%; Activity (A549 [8]): 0.996%; Activity (A549 [9]): 44.8%
23 | CN(C)C1CCN(C(=O)c2ccc(N3N=C(c4ccccc4)C(=C4CCN(C(=O)c5cc6cc(Cl)ccc6[nH]5)CC4)C3=O)cc2)CC1 | 43.6 | > 50 | > 50 | –
24 | CN(C)C1CCN(C(=O)c2ccc(N3N=C(c4ccccc4)C(=C4CCN(C(=O)c5cscn5)CC4)C3=O)cc2)CC1 | 16.6 | 11.7 | 16.8 | –
25 | CN(C)C1CCN(C(=O)c2ccc(N3N=C(c4ccccc4)/C(=C/NCc4ccccc4)C3=O)cc2)CC1 | > 20 | > 20 | > 20 | –
26 | CN(C)C(=O)c1ccc(N2N=C(c3ccccc3)/C(=N/Nc3ccccc3)C2=O)cc1 | > 50 | > 50 | > 50 | –
27 | COc1cc(N/N=C2\C(=O)N(c3ccc(C(=O)N4CCC(N(C)C)CC4)cc3)N=C2c2ccccc2)cc(OC)c1OC | 2.9 | 5.51 | 5.77 | –
28 | O=C(O)Cc1ccccc1Nc1c(Cl)cccc1Cl [DICLOFENAC] | – | – | – | CLint [2]: 203 µL/min/mg; CLH ([3]; Liver): 183 mL/min/kg; CLint [17]: 29.7 µL/min/mg; CLH ([4]; Liver): 0.1176 mL/min/kg; half-life at 1 h, 100 µM (in vitro [18]): 6.8 min; half-life at 1 h, 100 µM (in vitro [19]): 46.7 min
29 | CC1=NN(c2ccc(C(=O)N3CCC(N(C)C)CC3)cc2)C(=O)/C1=N\Nc1ccccc1 | 8.99 | 3.42 | 4.94 | Activity (A549 [5]): 82.4%; Activity (A549 [6]): 11.7%; Activity (A549 [7]): 1.57%; Activity (A549 [8]): 4.37%; Activity (A549 [9]): 13.3%
30 | O=C(c1ccc(N2N=C(c3ccccc3)/C(=N/Nc3ccccc3)C2=O)cc1)N1CCNCC1 | > 50 | > 50 | > 50 | –
31 | CN1CCC(NC(=O)c2cccc(N3N=C(c4ccccc4)/C(=N/Nc4ccccc4)C3=O)c2)CC1 | 9.06 | 5.83 | 15 | –
32 | CS(=O)(=O)N1CCN(C(=O)c2ccc(N3N=C(c4ccccc4)/C(=N/Nc4ccccc4)C3=O)cc2)CC1 | > 50 | > 50 | > 50 | –
33 | COc1cc(N/N=C2\C(=O)N(c3ccc(C(=O)N4CCC(N(C)C)CC4)cc3)N=C2c2ccccc2)ccc1F | 2.79 | 3.37 | 3.94 | Activity (A549 [5]): 35.4%; Activity (A549 [6]): 39.6%; Activity (A549 [7]): 22.2%; Activity (A549 [8]): 2.85%; Activity (A549 [16]): Active; Activity (A549 [9]): 61.8%
34 | O=C1/C(=N\Nc2ccccc2)C(c2ccccc2)=NN1c1ccccc1 | > 50 | > 50 | > 50 | –
35 | CN1CCN(C(=O)c2ccc(N3N=C(c4ccccc4)/C(=N/Nc4ccccc4)C3=O)cc2)CC1 | 22.9 | 21.9 | > 50 | –
36 | CN(C)C1CCN(C(=O)c2ccc(N3N=C(C4CC4)/C(=N/Nc4ccccc4)C3=O)cc2)CC1 | 2.15 | 4.38 | 7.14 | –
37 | O=C(c1ccc(N2N=C(c3ccccc3)/C(=N/Nc3ccccc3)C2=O)cc1)N1CCCCC1 | > 50 | > 50 | > 50 | –
38 | CN(C)C1CCN(C(=O)c2ccc(N3N=C(c4ccccc4)/C(=N/Nc4ccc5ccccc5c4)C3=O)cc2)CC1 | 4.52 | 2.18 | 4.78 | –
39 | O=C(c1ccc(N2N=C(c3ccccc3)/C(=N/Nc3ccccc3)C2=O)cc1)N1CCN(C2COC2)CC1 | > 50 | > 50 | > 50 | –
